Our source for the EC50 values is patent US12187706B2, “NLRP3 modulators” (INNATE TUMOR IMMUNITY, INC., priority 2019, dated 2025).

T1 sequence (Q96P20 whole entry): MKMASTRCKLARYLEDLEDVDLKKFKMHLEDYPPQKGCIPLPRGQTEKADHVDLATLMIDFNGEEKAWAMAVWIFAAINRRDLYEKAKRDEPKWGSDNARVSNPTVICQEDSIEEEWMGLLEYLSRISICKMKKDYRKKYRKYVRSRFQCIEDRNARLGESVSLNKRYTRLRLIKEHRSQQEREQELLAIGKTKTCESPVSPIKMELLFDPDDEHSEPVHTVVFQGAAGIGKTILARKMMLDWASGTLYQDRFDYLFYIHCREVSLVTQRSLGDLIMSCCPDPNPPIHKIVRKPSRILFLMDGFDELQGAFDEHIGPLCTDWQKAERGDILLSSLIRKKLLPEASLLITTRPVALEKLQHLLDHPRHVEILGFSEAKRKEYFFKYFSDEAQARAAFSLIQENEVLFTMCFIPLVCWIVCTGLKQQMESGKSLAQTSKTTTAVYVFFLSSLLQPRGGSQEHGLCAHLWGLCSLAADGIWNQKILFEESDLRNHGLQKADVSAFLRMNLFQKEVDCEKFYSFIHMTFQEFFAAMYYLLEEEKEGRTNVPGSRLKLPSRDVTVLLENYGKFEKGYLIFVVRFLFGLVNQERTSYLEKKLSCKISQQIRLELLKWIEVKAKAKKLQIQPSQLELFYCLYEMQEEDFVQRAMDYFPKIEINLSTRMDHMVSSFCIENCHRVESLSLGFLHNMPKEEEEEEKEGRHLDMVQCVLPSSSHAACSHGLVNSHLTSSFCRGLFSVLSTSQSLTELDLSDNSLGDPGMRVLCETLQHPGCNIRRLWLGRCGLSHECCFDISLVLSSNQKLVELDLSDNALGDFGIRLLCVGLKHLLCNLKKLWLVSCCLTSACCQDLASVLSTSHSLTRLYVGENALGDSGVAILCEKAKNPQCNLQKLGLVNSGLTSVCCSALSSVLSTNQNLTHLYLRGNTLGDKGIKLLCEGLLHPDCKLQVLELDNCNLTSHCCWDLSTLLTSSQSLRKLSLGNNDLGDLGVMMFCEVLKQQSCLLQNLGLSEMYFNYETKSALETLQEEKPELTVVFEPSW

The assay has as its target T1, NLRP3 (Homo sapiens, UniProt Q96P20).
T1 construct: host or cells: PMA-differentiated THP-1 cells
Description: Measurement of IL-1β production in PMA-differentiated THP-1 cells (NLRP3 hIL1B). Format: cell-based. The procedure:
Measurement of IL-1β Production in PMA-Differentiated THP-1 Cells
THP-1 cells were purchased from the American Type Culture Collection and sub-cultured according to instructions from the supplier. Prior to experiments, cells were cultured in RPMI 1640 containing 10% heat inactivated FBS, penicillin (100 units/ml) and streptomycin (100 μg/ml), and maintained in log phase prior to experimental setup. Prior to the experiment THP-1 were treated with PMA (Phorbol 12-myristate 13-acetate) (10 μg/ml) for 24 hours. The day of the experiment the media was removed and attaching cells were treated with trypsin for 2 minutes, cells were then collected, washed with PBS (phosphate buffer saline), spin down, resuspended in 2% heat inactivated FBS with RPMI at a concentration of 1×10^6 cells/ml, and 100 μl was plated in a 96 well plate. Compounds were dissolved in dimethyl sulfoxide (DMSO) and added to the culture medium to achieve desired concentration (e.g. 100, 30, 10, 3, 1, 0.3 or 0.1 μM). Cells were incubated with compounds for 4 hours. Cell free supernatant was collected and the production of IL-1β was evaluated by ELISA. A vehicle only control was run concurrently with each experiment. Final DMSO concentration was 1%.
Measurement of IL-1β Production in PMA-Differentiated THP-1 Cells (Alternative Procedure)
THP-1 cells were purchased from the American Type Culture Collection and sub-cultured according to instructions from the supplier. Prior to experiments, cells were cultured in RPMI 1640 containing 10% heat inactivated FBS, penicillin (100 units/ml), streptomycin (100 μg/ml), HEPES (10 mM) and sodium pyruvate (1 mM) and maintained in log phase prior to experimental setup. Prior to the experiment, THP-1 cells were treated with PMA (Phorbol 12-myristate 13-acetate) (20 μg/ml) overnight. The day of the experiment, the media was removed and attached cells were treated with trypsin for 2 minutes, cells were then collected, washed with PBS (phosphate buffer saline), pelleted by centrifugation and resuspended in 2% heat inactivated FBS with RPMI at a concentration of 50,000 cells/well in a 384 well plate. Cell free supernatant was collected and the production of IL-1β was evaluated by ELISA. Compounds were dissolved in dimethyl sulfoxide (DMSO) and added to the culture medium to achieve desired concentration (e.g. 100, 30, 10, 3, 1, 0.3 or 0.1 μM). Cells were incubated with compounds for 2 hours. A vehicle only control was run concurrently with each experiment. Final DMSO concentration was 1%.
Measurement of IL-1β Production—hTRF Protocol (Second Alternative Procedure)
Serial dilutions of compounds in DMSO were added to low volume 384 well plates at 100 nl/well using an ECHO 550 acoustic dispenser (Labcyte) to achieve final starting concentration of 10 μM in assay.
THP-1 cells in RPMI (Gibco, 11875) media with 10% FBS at a density of 1×10^6 cell/ml in a T175 flask were treated with a final concentration of phorbol 12-myristate 13-acetate (PMA) (Sigma, P1585) of 50 ng/ml overnight at 37° C. at 5% CO2 for differentiation. Cells were harvested the next day after rinsing well with dPBS using 0.5% trypsin. A cell solution was prepared of 1×10^6 cells/ml for 50,000 cells in 50 μl/well in RPMI media with 2% FBS. Cells were plated using a multichannel pipette onto the compound dilutions in Greiner, 384 well, black clear bottom tissue culture treated plates (781090). The plates were incubated in 37° C. incubator at 5% CO2 for 2 hours.
After the 2 hour incubation, the cell plates were spun in the centrifuge for 5 minutes at 1200 rpm. Using the Felix (CyBio), 8 μl of the supernatant was transferred to 384 well, low volume, white proxy plates. (Perkin Elmer, 6008230). A human IL1beta hTRF kit was used to analyze the supernatant (CISBIO, 62HIL1BPEG). The kit instructions were followed for preparing the IL1Beta standard curve and then the antibodies from the kit were diluted 1:40 rather than 1:20 as kit instructed.
`Nc1nc(NCC2CC2(F)F)c2ccc(-c3cc[nH]n3)cc2n1` (single isomer, unassigned) [Example 199, N4-((2,2-Difluorocyclopropyl)methyl)-7-(1H-pyrazol-3-yl)quinazoline-2,4-diamine] came in with an EC50 of 80 nM.

For the compound `CC(CCO)Nc1nc(N)nc2cc(-c3ccn[nH]3)ccc12` (single isomer, unassigned) [Example 200, 3-((2-amino-7-(1H-pyrazol-5-yl)quinazolin-4-yl)amino)butan-1-ol], the response was half-maximal at 860 nM (EC50).

`CC(CCO)Nc1nc(N)nc2cc(-c3ccn[nH]3)ccc12` (single isomer, unassigned) [Example 201, 3-((2-amino-7-(1H-pyrazol-5-yl)quinazolin-4-yl)amino)butan-1-ol]: the response was half-maximal at 70 nM (EC50).

With `COC(CO)CNc1nc(N)nc2cc(-c3ccn[nH]3)ccc12` (single isomer, unassigned) [Example 202, 3-((2-amino-7-(1H-pyrazol-5-yl)quinazolin-4-yl)amino)-2-methoxypropan-1-ol], a half-maximal effect (EC50) was put at 880 nM.

On to `COC(CO)CNc1nc(N)nc2cc(-c3ccn[nH]3)ccc12` (single isomer, unassigned) [Example 203, 3-((2-amino-7-(1H-pyrazol-5-yl)quinazolin-4-yl)amino)-2-methoxypropan-1-ol], for which the EC50 was determined as 450 nM.

`C[C@@H](O)CNc1nc(N)nc2cc(-c3ccn[nH]3)ccc12` [Example 1, (R)-1-((2-amino-7-(1H-pyrazol-5-yl)quinazolin-4-yl)amino)propan-2-ol] returned a concentration giving a half-maximal response (EC50) of 450 nM.

As for `Nc1nc(Nc2cc[nH]n2)c2ccc(-c3ccn[nH]3)cc2n1` [Example 2, N4-(1H-pyrazol-3-yl)-7-(1H-pyrazol-5-yl)quinazoline-2,4-diamine], the EC50 amounted to 220 nM.

For the compound `Nc1nc(NCCCO)c2cc(Cl)c(-c3ccn[nH]3)cc2n1` [Example 3, 3-((2-amino-6-chloro-7-(1H-pyrazol-5-yl)quinazolin-4-yl)amino)propan-1-ol], the concentration giving a half-maximal response (EC50) worked out at 6840 nM.

`Cn1ncnc1COc1nc(N)nc2cc(-c3ccn[nH]3)ccc12` [Example 7, 4-((1-methyl-1H-1,2,4-triazol-5-yl)methoxy)-7-(1H-pyrazol-5-yl)quinazolin-2-amine] gave an EC50 of 4460 nM.

Turning to `Nc1nc(NCCCO)c2ccc(-c3ccn[nH]3)cc2n1` [Example 14, 3-((2-amino-7-(1H-pyrazol-3-yl)quinazolin-4-yl)amino)propan-1-ol], the EC50 was 370 nM.

For the compound `Nc1nc(NCCCO)c2c(F)cc(-c3ccn[nH]3)cc2n1` [Example 15, 3-((2-amino-5-fluoro-7-(1H-pyrazol-3-yl)quinazolin-4-yl)amino)propan-1-ol], the EC50 worked out at 240 nM.

In the case of `Nc1nc(NCCCO)c2c(Cl)cc(-c3cc[nH]n3)cc2n1` [Example 18, 3-((2-amino-5-chloro-7-(1H-pyrazol-3-yl)quinazolin-4-yl)amino)propan-1-ol], the EC50 was determined as 650 nM.

`Nc1nc(NCCCO)c2c(-c3cc[nH]n3)cc(-c3cc[nH]n3)cc2n1` [Example 19, 3-((2-amino-5,7-di(1H-pyrazol-3-yl)quinazolin-4-yl)amino)propan-1-ol] returned an EC50 of 9860 nM.

`Cc1cc(-c2cc[nH]n2)cc2nc(N)nc(NCCCO)c12` [Example 21, 3-((2-amino-5-methyl-7-(1H-pyrazol-3-yl)quinazolin-4-yl)amino)propan-1-ol] showed an EC50 of 650 nM.

As for `CN(C)c1cc(-c2cc[nH]n2)cc2nc(N)nc(NCCCO)c12` [Example 22, 3-((2-amino-5-(dimethylamino)-7-(1H-pyrazol-3-yl)quinazolin-4-yl)amino)propan-1-ol], a half-maximal effect (EC50) was put at 9240 nM.

The compound `Nc1nc(N[C@H]2CCOC2)c2ccc(-c3ccn[nH]3)cc2n1` [Example 23, (S)-7-(1H-pyrazol-5-yl)-N4-(tetrahydrofuran-3-yl)quinazoline-2,4-diamine] gave an EC50 of 670 nM.

In turn, `Nc1nc(NCCCO)c2cc(F)c(-c3ccn[nH]3)cc2n1` [Example 24, 3-((2-amino-6-fluoro-7-(1H-pyrazol-5-yl)quinazolin-4-yl)amino)propan-1-ol] came in with an EC50 of 1680 nM.

As to `Nc1nc(NCC(F)(F)c2ccccn2)c2ccc(-c3ccn[nH]3)cc2n1` [Example 26], the EC50 was found to be 120 nM.

`Nc1nc(NCc2cc[nH]n2)c2ccc(-c3ccn[nH]3)cc2n1` [Example 27]: the EC50 worked out at 430 nM.

For `Nc1nc(NCc2nccs2)c2ccc(-c3ccn[nH]3)cc2n1` [Example 28], the concentration giving a half-maximal response (EC50) worked out at 240 nM.

`CC(C)(O)CNc1nc(N)nc2cc(-c3ccn[nH]3)ccc12` [Example 29] yielded an EC50 of 390 nM.

In turn, `Nc1nc(N[C@@H]2CCC[C@@H]2O)c2ccc(-c3ccn[nH]3)cc2n1` [Example 30] showed an EC50 of 300 nM.

The compound `Nc1nc(NCCn2cncn2)c2ccc(-c3ccn[nH]3)cc2n1` [Example 31] displayed an EC50 of 800 nM.

Compound `Nc1nc(NCc2nc[nH]n2)c2ccc(-c3ccn[nH]3)cc2n1` [Example 32] returned an EC50 of 640 nM.

For `Nc1nc(NC(CO)c2cc[nH]n2)c2ccc(-c3ccn[nH]3)cc2n1` (stereo not drawn) [Example 33], the EC50 was found to be 5390 nM.

For the compound `Nc1nc(NC(CO)c2ncc[nH]2)c2ccc(-c3ccn[nH]3)cc2n1` (stereo not drawn) [Example 34], the EC50 came out at 7670 nM.

In turn, `Nc1nc(NC(CO)c2nccs2)c2ccc(-c3ccn[nH]3)cc2n1` (stereo not drawn) [Example 35] displayed an EC50 of 5530 nM.

`C[C@H](O)CNc1nc(N)nc2cc(-c3ccn[nH]3)ccc12` [Example 36] had an EC50 of 710 nM.

The compound `Nc1nc(NCC2(O)CCOCC2)c2ccc(-c3ccn[nH]3)cc2n1` [Example 37] showed an EC50 of 870 nM.

On to `Nc1nc(NCC2(O)CCC2)c2ccc(-c3ccn[nH]3)cc2n1` [Example 38], for which the EC50 was determined as 320 nM.

With `Nc1nc(NCc2ncc[nH]2)c2ccc(-c3ccn[nH]3)cc2n1` [Example 39], the EC50 stood at 1320 nM.

In turn, `CN(C)CC(O)CNc1nc(N)nc2cc(-c3ccn[nH]3)ccc12` (stereo not drawn) [Example 40] registered an EC50 of 2240 nM.

As for `Nc1nc(NCC(O)CC(F)(F)F)c2ccc(-c3ccn[nH]3)cc2n1` (stereo not drawn) [Example 41], the EC50 is 760 nM.

For the compound `Nc1nc(NCC2CCC(=O)N2)c2ccc(-c3ccn[nH]3)cc2n1` (stereo not drawn) [Example 43], a half-maximal effect (EC50) was put at 1040 nM.

`Nc1nc(NCc2cc3n(n2)CCCO3)c2ccc(-c3ccn[nH]3)cc2n1` [Example 44] returned an EC50 of 2150 nM.

As for `Nc1nc(NCCO)c2ccc(-c3ccn[nH]3)cc2n1` [Example 45], a half-maximal effect (EC50) was put at 450 nM.

Take `Nc1nc(N[C@@H]2CC[C@@H](O)C2)c2ccc(-c3ccn[nH]3)cc2n1` [Example 46]: the EC50 amounted to 210 nM.

In turn, `Nc1nc(N[C@H]2CC[C@H](O)C2)c2ccc(-c3ccn[nH]3)cc2n1` [Example 47] registered a concentration giving a half-maximal response (EC50) of 550 nM.

`COc1ncc(CNc2nc(N)nc3cc(-c4ccn[nH]4)ccc23)cn1` [Example 48] came in with an EC50 of 2920 nM.

Consider `Nc1nc(NCc2cncnc2)c2ccc(-c3ccn[nH]3)cc2n1` [Example 49], for which the EC50 amounted to 460 nM.

Compound `Nc1nc(NCc2ccncn2)c2ccc(-c3ccn[nH]3)cc2n1` [Example 50] had an EC50 of 1870 nM.

In turn, `Nc1nc(NCc2ncccn2)c2ccc(-c3ccn[nH]3)cc2n1` [Example 51] came in with an EC50 of 320 nM.

Take `Nc1nc(NCc2cnccn2)c2ccc(-c3ccn[nH]3)cc2n1` [Example 52]: the EC50 was found to be 780 nM.

Compound `Nc1nc(N[C@H]2COCC[C@@H]2O)c2ccc(-c3ccn[nH]3)cc2n1` [Example 53] showed an EC50 of 1350 nM.

Compound `Nc1nc(N[C@H](CO)Cc2c[nH]cn2)c2ccc(-c3ccn[nH]3)cc2n1` [Example 54] displayed an EC50 of 4010 nM.
